We go through 13 compounds from DBAASP.

≈ marks a conversion by molar mass, not a printed value. Where “and” joins values, the source holds several entries; their conditions need not be identical. Identical values can stand only once.

What all share (test): ≥ marks a high value that may be exact or a test limit, other limits are often not marked, values filed in µg/mL are converted to µM
The test system of assay [1] is Staphylococcus aureus ATCC 29213.
Assay [2] relates to Escherichia coli ATCC 25922.
Assay [3] concerns Acinetobacter baumannii ATCC 19606.
Assay [4] deals with Enterococcus faecalis ATCC 29212.
Assay [5] relates to Staphylococcus aureus ATCC 25923.
Assay [6] concerns Pseudomonas aeruginosa ATCC 27853.
The subject of assay [7] is Staphylococcus aureus.
Assay [8] has as its system Pseudomonas aeruginosa.
Assay [9] relates to Escherichia coli.

Take `CC[C@H](C)[C@H](NC(=O)[C@H](CCCN=C(N)N)NC(=O)[C@H](CCC(N)=O)NC(=O)[C@@H](NC(=O)[C@@H](NC(=O)[C@H](CCCN=C(N)N)NC(=O)[C@H](CCCCN)NC(=O)[C@@H](N)Cc1ccccc1)[C@@H](C)CC)C(C)C)C(=O)N[C@@H](CCCCN)C(=O)N[C@@H](CC(=O)O)C(=O)N[C@@H](Cc1cnc[nH]1)C(=O)N[C@@H](CC(C)C)C(=O)N[C@@H](CCCN=C(N)N)C(=O)O` [FKRIVQRIKDHLR]: the MIC in assay [1] is > 40 µM; in assay [2], 10 µM (≈ 17.1 µg/mL).
As for `CC(C)C[C@H](NC(=O)[C@H](CCCCN)NC(=O)CNC(=O)[C@H](CC(C)C)NC(=O)[C@H](CC(C)C)NC(=O)[C@H](C)NC(=O)[C@H](CC(N)=O)NC(=O)[C@H](CC(C)C)NC(=O)[C@H](C)NC(=O)[C@H](CCC(N)=O)NC(=O)CNC(=O)[C@@H](NC(=O)[C@H](Cc1ccccc1)NC(=O)CNC(=O)[C@H](CC(C)C)NC(=O)[C@@H](N)Cc1ccccc1)C(C)C)C(N)=O` [FLGFVGQALNALLGKL], the MIC is > 64 µM in assay [3], 32 µM (≈ 53.1 µg/mL) in assay [1], > 64 µM in assay [4] and > 64 µM in assay [2].
For `CC(C)C[C@H](NC(=O)[C@H](CC(C)C)NC(=O)[C@H](CCCCN)NC(=O)[C@H](CCCCN)NC(=O)[C@H](CC(C)C)NC(=O)[C@H](CCC(N)=O)NC(=O)[C@H](CCCCN)NC(=O)[C@H](CC(C)C)NC(=O)[C@@H](N)Cc1ccccc1)C(N)=O` [FLKQLKKLL], the MIC in [5] is 113 µM (≈ 128 µg/mL); in assay [6], 7.08 µM (≈ 7.99 µg/mL); in assay [3], > 113 µM; in [2], 56.6 µM (≈ 63.9 µg/mL).
Regarding `CC(C)C[C@H](NC(=O)[C@H](CC(C)C)NC(=O)[C@H](CCCCN)NC(=O)[C@H](CCCCN)NC(=O)[C@H](CC(C)C)NC(=O)[C@H](Cc1ccc(O)cc1)NC(=O)[C@H](CCCCN)NC(=O)[C@H](CC(C)C)NC(=O)[C@@H](N)Cc1ccccc1)C(N)=O` [FLKYLKKLL], the MIC in [3] was 13.7 µM and 27.5 µM; in [2] it was 13.7 µM and 27.5 µM.
For `CC[C@H](C)[C@H](NC(=O)CN)C(=O)NCC(=O)N[C@@H](CCCCN)C(=O)N[C@@H](Cc1ccccc1)C(=O)N[C@H](C(=O)N[C@@H](Cc1cnc[nH]1)C(=O)N[C@@H](C)C(=O)N[C@@H](C)C(=O)N[C@@H](CCCCN)C(=O)N[C@@H](CCCCN)C(=O)N[C@@H](Cc1ccccc1)C(=O)NCC(=O)N[C@@H](CCCCN)C(=O)N[C@@H](CC(C)C)C(=O)N[C@@H](Cc1ccccc1)C(=O)N[C@H](C(=O)NCC(=O)N[C@@H](CCC(=O)O)C(=O)N[C@H](C(=O)N[C@@H](CCSC)C(=O)N[C@@H](CC(N)=O)C(=O)N[C@@H](CO)C(N)=O)[C@@H](C)CC)[C@@H](C)CC)[C@@H](C)CC` [GIGKFIHAAKKFGKLFIGEIMNS], the MIC came to 9.6 µM (≈ 24.1 µg/mL) in assay [7], 23.1 µM (≈ 57.8 µg/mL) in assay [8] and 2.4 µM (≈ 6.01 µg/mL) in assay [9].
`CC[C@H](C)[C@H](NC(=O)CN)C(=O)N[C@@H](CC(C)C)C(=O)N[C@@H](CO)C(=O)N[C@@H](CC(N)=O)C(=O)N[C@H](C(=O)N[C@@H](CC(C)C)C(=O)NCC(=O)N[C@@H](CCSC)C(=O)NCC(=O)N[C@@H](CCCCN)C(=O)N[C@@H](CCCCN)C(=O)N[C@H](C(=O)N[C@H](C(=O)N[C@H]1CSSC[C@@H](C(=O)O)NC(=O)[C@H](CC(C)C)NC(=O)CNC(=O)[C@H](CO)NC(=O)[C@H](CC(C)C)NC(=O)CNC1=O)C(C)C)[C@@H](C)CC)C(C)C` [GILSNVLGMGKKIVCGLSGLC]: the MIC in [7] was > 100 µM; in assay [9] it was 70 µM (≈ 144 µg/mL).
With `CC[C@H](C)[C@H](NC(=O)[C@H](Cc1ccccc1)NC(=O)[C@H](CO)NC(=O)[C@H](CCCCN)NC(=O)[C@H](Cc1c[nH]c2ccccc12)NC(=O)[C@@H](N)CCCCN)C(=O)N[C@@H](CCCCN)C(=O)N[C@@H](CCCCN)C(=O)N[C@@H](C)C(=O)N[C@@H](CCCCN)C(=O)N[C@H](C(=O)N[C@@H](CO)C(=O)N[C@@H](Cc1ccccc1)C(=O)N[C@@H](CC(C)C)C(=O)N[C@@H](Cc1cnc[nH]1)C(=O)N[C@@H](CO)C(=O)N[C@@H](C)C(=O)N[C@@H](CCCCN)C(=O)N[C@@H](CCCCN)C(=O)N[C@@H](Cc1ccccc1)C(N)=O)[C@@H](C)O` [KWKSFIKKAKTSFLHSAKKF], the MIC in assay [8] came to 10.4 µM (≈ 25 µg/mL).
The same measure, in the same setting: for `CC[C@H](C)[C@H](NC(=O)[C@H](Cc1ccccc1)NC(=O)[C@H](CO)NC(=O)[C@H](CCCCN)NC(=O)[C@H](Cc1c[nH]c2ccccc12)NC(=O)[C@@H](N)CCCCN)C(=O)N[C@@H](CCCCN)C(=O)N[C@@H](CCCCN)C(=O)N[C@@H](CC(C)C)C(=O)N[C@H](C(=O)N[C@@H](CO)C(=O)N[C@@H](CCCCN)C(=O)N[C@@H](Cc1ccccc1)C(=O)N[C@@H](CC(C)C)C(=O)N[C@@H](Cc1cnc[nH]1)C(=O)N[C@@H](CO)C(=O)N[C@@H](C)C(=O)N[C@@H](CC(=O)O)C(=O)N[C@@H](CCCCN)C(=O)N[C@@H](Cc1ccccc1)C(N)=O)[C@@H](C)O` [KWKSFIKKLTSKFLHSADKF] the value was 10.2 µM (≈ 25 µg/mL).
Regarding `CC[C@H](C)[C@H](NC(=O)[C@@H]1CCCN1C(=O)[C@H](CC(C)C)NC(=O)[C@@H](N)CC(C)C)C(=O)N[C@H](C(=O)NCC(=O)N[C@@H](CC(N)=O)C(=O)N[C@@H](CC(C)C)C(=O)N[C@@H](CC(C)C)C(=O)N[C@@H](CCCCN)C(=O)N[C@@H](CO)C(=O)N[C@@H](CC(C)C)C(=O)N[C@@H](CC(C)C)C(=O)NCC(=O)N[C@@H](Cc1c[nH]c2ccccc12)C(=O)N[C@@H](CCCCN)C(=O)N[C@@H](CCCN=C(N)N)C(=O)N[C@@H](CCCCN)C(=O)N[C@@H](CCCN=C(N)N)C(=O)N[C@@H](Cc1ccccc1)C(=O)NCC(N)=O)C(C)C` [LLPIVGNLLKSLLGWKRKRFG], the MIC is 4 µM and 8 µM in assay [6]; 5 µM and 12.5 µM in assay [4].
Regarding `CC[C@H](C)[C@H](NC(=O)[C@H](CS)NC(=O)[C@H](CCCN=C(N)N)NC(=O)[C@@H](N)CC(C)C)C(=O)N[C@@H](C)C(=O)N[C@@H](CC(C)C)C(=O)N[C@@H](CCCN=C(N)N)C(=O)N[C@@H](CCCCN)C(=O)N[C@@H](CCCCN)C(N)=O` [LRCIALRKK], the MIC in [7] is > 58.2 µM; in assay [9], 20.6 µM (≈ 22.6 µg/mL).
Consider `CC(=O)N[C@@H](CCC(N)=O)C(=O)N[C@@H](C)C(=O)N[C@@H](CCCCN)C(=O)O` [QAK], for which the minimum inhibitory concentration (MIC) in assay [1] turned out to be 21.7 µM (≈ 8.41 µg/mL); in assay [2] it was 10.9 µM (≈ 4.21 µg/mL).
Turning to `CC(C)[C@H](NC(=O)[C@H](Cc1c[nH]c2ccccc12)NC(=O)[C@H](CCCCN)NC(=O)[C@@H](N)CCCN=C(N)N)C(=O)N[C@@H](Cc1ccc(O)cc1)C(=O)N[C@@H](Cc1c[nH]c2ccccc12)C(=O)N[C@@H](CCCN=C(N)N)C(=O)N[C@@H](CC(N)=O)C(=O)N[C@@H](CCCN=C(N)N)C(=O)O` [RKWVYWRNR], the MIC in assay [1] was 22.9 µM (≈ 31.3 µg/mL); in assay [2], 91.7 µM (≈ 125 µg/mL).
With `CC(C)C[C@H](NC(=O)[C@H](Cc1ccc(O)cc1)NC(=O)[C@H](CCCCN)NC(=O)[C@H](Cc1c[nH]c2ccccc12)NC(=O)[C@H](Cc1ccccc1)NC(=O)[C@H](CCCCN)NC(=O)[C@H](CCCN=C(N)N)NC(=O)[C@@H](N)Cc1c[nH]c2ccccc12)C(=O)N[C@@H](CCCCN)C(N)=O` [WRKFWKYLK], the MIC was 22.9 µM (≈ 31 µg/mL) in assay [1]; 185 µM and > 92.3 µM in assay [4]; 22.9 µM (≈ 31 µg/mL) in [2].

What is called MIC is the lowest concentration found to suppress growth.
